Laboratory results published in patent publication US5593970A, “Heterocyclic anthracycline analogs” (priority 1994, dated 1997).

Tested on: DMS 273
Test: NCI sulforhodamine B assay
Type: cell-based, human

## COC(=O)C1CC2=C(C(=O)c3c(cc4ccccc4c3O)C2=O)C(O[C@H]2C[C@H](NC(=O)C(F)(F)F)[C@H](O)[C@H](C)O2)O1 (mixture of isomers) [BCH-242, (1'S,1R,3S) and (1'S, 1S,3R)-Methyl[11-hydroxy-1-2',3',6'-trideoxy-3-trifluroacetamido-L-lyxohexopyranose)-5,12-dioxo-3,4,5,12-tetrahydroanthraceno[2,3-c]pyran-3-yl]formate]
DMS 273, 2880 min
  Log10 LC50: -5.31 log molar
Homo sapiens, DMS-273, 48 h, read-out: Log10 LC50, DMS 273 (converted)
  CC50: 9.77 µM
